Experimental findings from patent publication US4245106A, “Process for the preparation of 1-alkyl-3-aryl-4-pyrazolecarboxylates” (Monsanto Company, priority 1979, dated 1981) are described below.

Common to all, as to assay type: in vivo
The subject of assay [1] is Barnyard grass. Nature of the assay: pre-emergent herbicidal activity test. Here is the method:
(§1) Table II summarizes results of tests conducted to determine the pre-emergent as well as the post-emergent herbicidal activity of the compounds. The pre-emergent test was conducted as follows:
(§2) A good grade of top soil was placed in aluminum pans and compacted to a depth of three-eighths to one-half inch from the top of the pan. On the top of the soil was placed a predetermined number of seeds or vegetative propagules of various plant species. The soil required to level fill the pans after seeding or adding vegetative propagules was weighed into a pan. A known amount of the active ingredient applied in a solvent or as a wettable powder and the soil were thoroughly mixed, and used as a cover layer for prepared pans. After treatment the pans were moved into a greenhouse bench where they were watered from below as needed to give adequate moisture for germination and growth.
(§3) A herbicial rating code was used to signify the extent of phytotoxicity of each species. The rating are defined as follows: […]

Assay [2] relates to Bromus tectorum. Nature of the assay: pre-emergent herbicidal activity test. The procedure:
as §1, §2, §3

For assay [3], the system named is Canada Thistle. Nature of the assay: pre-emergent herbicidal activity test. The procedure:
as §1, §2, §3

The subject of assay [4] is Cocklebur. Description: pre-emergent herbicidal activity test. Here is the method:
as §1, §2, §3

Assay [5] relates to Johnsongrass. Nature of the assay: pre-emergent herbicidal activity test. The procedure: as §1, §2, §3
Assay [6] deals with Lambsquarter. Nature of the assay: pre-emergent herbicidal activity test. The procedure: as §1, §2, §3
Assay [7] relates to Morningglory. Description: pre-emergent herbicidal activity test. Here is the method:
as §1, §2, §3

For assay [8], the system named is Nutsedge. Description: pre-emergent herbicidal activity test. The procedure:
as §1, §2, §3

For assay [9], the system named is Quackgrass. Description: pre-emergent herbicidal activity test. The procedure: as §1, §2, §3
Assay [10] has as its system Smartweed. Nature of the assay: pre-emergent herbicidal activity test. The procedure:
as §1, §2, §3

Assay [11] has as its system Velvetleaf. Nature of the assay: pre-emergent herbicidal activity test. Here is the method:
as §1, §2, §3

Assay [12] has as its system Barnyard grass. Description: post-emergent herbicidal activity test. Here is the method:
(§4) The post-emergent tests were conducted as follows. The active ingredients are applied in spray form to two or three-week old specimens of various plant species. The spray, a solution or wettable powder suspension containing the appropriate rate of active ingredient to give the desired test rate and a surfactant, is applied to the plants. The treated plants are placed in a greenhouse and unless otherwise noted approximately four weeks later the effects are observed and recorded.

Assay [13] deals with Bromus tectorum. Nature of the assay: post-emergent herbicidal activity test. The procedure: as §4
The subject of assay [14] is Canada Thistle. Description: post-emergent herbicidal activity test. The procedure: as §4
For assay [15], the system named is Cocklebur. Nature of the assay: post-emergent herbicidal activity test. Here is the method:
as §4

For assay [16], the system named is Johnsongrass. Description: post-emergent herbicidal activity test. Here is the method: as §4
The test system of assay [17] is Lambsquarter. Description: post-emergent herbicidal activity test. Here is the method: as §4
The test system of assay [18] is Morningglory. Description: post-emergent herbicidal activity test. The procedure: as §4
The test system of assay [19] is Nutsedge. Nature of the assay: post-emergent herbicidal activity test. Here is the method: as §4
The subject of assay [20] is Quackgrass. Description: post-emergent herbicidal activity test. The procedure: as §4
Assay [21] has as its system Smartweed. Nature of the assay: post-emergent herbicidal activity test. The procedure:
as §4

Assay [22] concerns Velvetleaf. Nature of the assay: post-emergent herbicidal activity test. The procedure: as §4
Setting [23] is: 11.2 Kg/Ha, approximately 28 days after seeding and treating.
The mark [24] stands for this setting: 11.2 Kg/Ha, approximately four weeks later.
The mark [25] stands for this setting: *11.2 Kg/Ha, observed approximately 14 days after treatment.
Note: ranges in brackets are in %.

Turning to `CCC(C)OC(=O)c1cn(C)nc1-c1cccc(C(F)(F)F)c1` (centres unmarked) [Example 20], in the assay on Barnyard grass [1] (setting [23]), the “Pre-Emergent herbicidal rating, K Barnyard grass” value is 3 (75-100). In addition, the “Pre-Emergent herbicidal rating, J Bromus tectorum” value with Bromus tectorum [2] (setting [23]) is 0 (0-24). In addition, the “Pre-Emergent herbicidal rating, A Canada Thistle” value with Canada Thistle [3] (setting [23]) is recorded as 0 (0-24). For the same molecule, the “Pre-Emergent herbicidal rating, B Cocklebur” value in the assay on Cocklebur [4] (setting [23]) is on record as 0 (0-24). Moreover, in the assay on Johnsongrass [5] (setting [23]), the “Pre-Emergent herbicidal rating, I Johnsongrass” value is 0 (0-24). In addition, in the assay on Lambsquarter [6] (setting [23]), the “Pre-Emergent herbicidal rating, E Lambsquarter” value is on record as 3 (75-100). Besides, in the assay with Morningglory [7] (setting [23]), the “Pre-Emergent herbicidal rating, D Morningglory” value is 0 (0-24). Besides, the “Pre-Emergent herbicidal rating, G Nutsedge” value with Nutsedge [8] (setting [23]) is on record as 0 (0-24). Moreover, the “Pre-Emergent herbicidal rating, H Quackgrass” value in the assay on Quackgrass [9] (setting [23]) is reported as 0 (0-24). Further, the “Pre-Emergent herbicidal rating, F Smartweed” value in the assay with Smartweed [10] (setting [23]) is 1 (25-49). In addition, the “Pre-Emergent herbicidal rating, C Velvetleaf” value in the assay with Velvetleaf [11] (setting [23]) is reported as 0 (0-24). For the same molecule, the “Post-Emergent herbicidal rating, K Barnyard grass” value in the assay with Barnyard grass [12] (setting [24]) is on record as 0 (0-24). The “Post-Emergent herbicidal rating, J Bromus tectorum” value in the assay on Bromus tectorum [13] (setting [24]) was 0 (0-24). Besides, the “Post-Emergent herbicidal rating, A Canada Thistle” value in the assay with Canada Thistle [14] (setting [24]) is 1 (25-49). For the same molecule, the “Post-Emergent herbicidal rating, B Cocklebur” value in the assay on Cocklebur [15] (setting [24]) was 1 (25-49). For the same molecule, in the assay with Johnsongrass [16] (setting [24]), the “Post-Emergent herbicidal rating, I Johnsongrass” value was 1 (25-49). The “Post-Emergent herbicidal rating, E Lambsquarter” value in the assay on Lambsquarter [17] (setting [24]) was 2 (50-74). Besides, the “Post-Emergent herbicidal rating, D Morningglory” value with Morningglory [18] (setting [24]) was 0 (0-24). Also, the “Post-Emergent herbicidal rating, G Nutsedge” value in the assay with Nutsedge [19] (setting [24]) is reported as 0 (0-24). For the same molecule, the “Post-Emergent herbicidal rating, H Quackgrass” value in the assay on Quackgrass [20] (setting [24]) is listed as 0 (0-24). In addition, in the assay with Smartweed [21] (setting [24]), the “Post-Emergent herbicidal rating, F Smartweed” value is on record as 0 (0-24). Further, in the assay on Velvetleaf [22] (setting [24]), the “Post-Emergent herbicidal rating, C Velvetleaf” value is recorded as 1 (25-49).
In the case of `CCCCCCOC(=O)c1cn(C)nc1-c1cccc(C(F)(F)F)c1` [Example 21], the “Pre-Emergent herbicidal rating, K Barnyard grass” value in the assay on Barnyard grass [1] (setting [25]) is 1 (25-49). For the same molecule, the “Pre-Emergent herbicidal rating, J Bromus tectorum” value in the assay with Bromus tectorum [2] (setting [25]) is 0 (0-24). Further, the “Pre-Emergent herbicidal rating, A Canada Thistle” value in the assay on Canada Thistle [3] (setting [25]) was 0 (0-24). For the same molecule, the “Pre-Emergent herbicidal rating, B Cocklebur” value in the assay on Cocklebur [4] (setting [25]) is recorded as 0 (0-24). Also, the “Pre-Emergent herbicidal rating, I Johnsongrass” value in the assay with Johnsongrass [5] (setting [25]) is on record as 0 (0-24). Further, in the assay with Lambsquarter [6] (setting [25]), the “Pre-Emergent herbicidal rating, E Lambsquarter” value was 0 (0-24). For the same molecule, in the assay with Morningglory [7] (setting [25]), the “Pre-Emergent herbicidal rating, D Morningglory” value is 0 (0-24). In the assay with Nutsedge [8] (setting [25]), the “Pre-Emergent herbicidal rating, G Nutsedge” value is reported as 0 (0-24). Moreover, in the assay with Quackgrass [9] (setting [25]), the “Pre-Emergent herbicidal rating, H Quackgrass” value was 0 (0-24). Also, the “Pre-Emergent herbicidal rating, F Smartweed” value with Smartweed [10] (setting [25]) was 0 (0-24). In addition, the “Pre-Emergent herbicidal rating, C Velvetleaf” value in the assay on Velvetleaf [11] (setting [25]) is reported as 0 (0-24). In the assay on Barnyard grass [12] (setting [25]), the “Post-Emergent herbicidal rating, K Barnyard grass” value was 1 (25-49). In addition, the “Post-Emergent herbicidal rating, J Bromus tectorum” value in the assay with Bromus tectorum [13] (setting [25]) was 0 (0-24). Further, in the assay with Canada Thistle [14] (setting [25]), the “Post-Emergent herbicidal rating, A Canada Thistle” value is listed as 1 (25-49). Moreover, the “Post-Emergent herbicidal rating, B Cocklebur” value in the assay with Cocklebur [15] (setting [25]) is 1 (25-49). The “Post-Emergent herbicidal rating, I Johnsongrass” value in the assay on Johnsongrass [16] (setting [25]) is given as 1 (25-49). In addition, in the assay with Lambsquarter [17] (setting [25]), the “Post-Emergent herbicidal rating, E Lambsquarter” value is 2 (50-74). The “Post-Emergent herbicidal rating, D Morningglory” value with Morningglory [18] (setting [25]) is on record as 1 (25-49). Besides, in the assay on Nutsedge [19] (setting [25]), the “Post-Emergent herbicidal rating, G Nutsedge” value is recorded as 0 (0-24). Further, the “Post-Emergent herbicidal rating, H Quackgrass” value with Quackgrass [20] (setting [25]) is 0 (0-24). Moreover, in the assay on Smartweed [21] (setting [25]), the “Post-Emergent herbicidal rating, F Smartweed” value is 1 (25-49). In addition, the “Post-Emergent herbicidal rating, C Velvetleaf” value in the assay with Velvetleaf [22] (setting [25]) is 1 (25-49).
